The structures appear in SMILES notation. pEC50: −log10 of the molar value.

The target in one experiment is Cdk7 cyclinH MAT1 (Homo sapiens, UniProt P50613). The experiment can be described thus: In vitro kinase assay (Table 1). In kind it is biochemical.
The target of a further experiment is Dyrk3 (Homo sapiens, UniProt O43781). The experiment is described as follows: In vitro kinase assay (Table 1). It is filed as biochemical.
The target in another experiment is FGFR1 (Homo sapiens, UniProt P11362). The experiment can be described thus: In vitro kinase assay (Table 1). It is filed as biochemical.
A further experiment concerns the target Nek2 (Homo sapiens, UniProt P51955). The experiment is described as follows: In vitro kinase assay (Table 1). It is filed as biochemical.
In another experiment the target is PAK1 (Homo sapiens, UniProt Q13153). The experiment can be described thus: In vitro kinase assay (Table 1). It is filed as biochemical.
The next experiment deals with PAK2 (Homo sapiens, UniProt Q13177). The experiment is described as follows: In vitro kinase assay (Table 1). In kind it is biochemical.
Another experiment addresses PIK3Calpha (Homo sapiens, UniProt P42336). The experiment is described as follows: In vitro kinase assay (Table 1). In kind it is biochemical.
The next experiment addresses Pim1 (Homo sapiens, UniProt P11309). The experiment is described as follows: In vitro kinase assay (Table 1). In kind it is biochemical.
Another experiment addresses TRKB (Homo sapiens, UniProt Q16620). The experiment is described as follows: In vitro kinase assay (Table 1). It is filed as biochemical.
The target in a further experiment is T1, BaF-Tel-FGFR3 (Homo sapiens, UniProt P22607).
T1 construct: fused on or other part: P41212 (Transcription factor ETV6)
The experiment can be described thus: BaF3 proliferation assay. It is filed as cell-based, murine.

For the next experiment, the target named is BaF-PTC3-RET (Homo sapiens, UniProt P07949). The experiment can be described thus: BaF3 proliferation assay. In kind it is cell-based, murine.
The next experiment has as its target T2, BaF3-Tel-JAK2; clone1 (Homo sapiens, UniProt O60674).
T2 construct: fused on or other part: P41212 (Transcription factor ETV6)
The experiment can be described thus: BaF3 proliferation assay. In kind it is cell-based, murine.

In a further experiment the target is T3, BAF/Tel-Tie1-Q2/sACP (Homo sapiens, UniProt P35590).
T3 construct: fused on or other part: P41212 (Transcription factor ETV6)
The experiment is described as follows: BaF3 proliferation assay. It is filed as cell-based, murine.

A further experiment has as its target T4, BAF/Tel-InsR-Q.4/sACP (Homo sapiens, UniProt P06213).
T4 construct: fused on or other part: P41212 (Transcription factor ETV6)
The experiment is described as follows: BaF3 proliferation assay. In kind it is cell-based, murine.

For another experiment, the target named is T5, BAF/Tel-JAK1-S1.2/sACP (Homo sapiens, UniProt P23458).
T5 construct: fused on or other part: P41212 (Transcription factor ETV6)
The experiment can be described thus: BaF3 proliferation assay. In kind it is cell-based, murine.

Another experiment deals with T6, BAF/Tel-Lyn-1.2/sACP (Homo sapiens, UniProt P07948).
T6 construct: fused on or other part: P41212 (Transcription factor ETV6)
The experiment is described as follows: BaF3 proliferation assay. It is filed as cell-based, murine.

Experiment [1] has as its system all other BaF3 cell lines. The experiment is described as follows: BaF3 proliferation assays, all other cell lines. In kind it is cell-based, murine. The conditions noted are these: Mus musculus, read-out: Cellular EC50, all other BaF3 cell lines.

Chain of Pim1 (P11309 whole entry, species assumed): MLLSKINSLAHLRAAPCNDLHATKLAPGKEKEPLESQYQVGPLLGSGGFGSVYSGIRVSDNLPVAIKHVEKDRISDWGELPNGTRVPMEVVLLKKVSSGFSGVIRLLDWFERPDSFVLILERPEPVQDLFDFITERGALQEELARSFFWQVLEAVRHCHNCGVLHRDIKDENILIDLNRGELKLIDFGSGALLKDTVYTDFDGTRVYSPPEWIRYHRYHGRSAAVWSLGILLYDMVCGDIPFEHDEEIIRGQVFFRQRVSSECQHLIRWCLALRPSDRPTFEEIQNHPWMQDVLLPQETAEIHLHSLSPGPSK
Chain of PAK2 (Q13177 whole entry, species assumed): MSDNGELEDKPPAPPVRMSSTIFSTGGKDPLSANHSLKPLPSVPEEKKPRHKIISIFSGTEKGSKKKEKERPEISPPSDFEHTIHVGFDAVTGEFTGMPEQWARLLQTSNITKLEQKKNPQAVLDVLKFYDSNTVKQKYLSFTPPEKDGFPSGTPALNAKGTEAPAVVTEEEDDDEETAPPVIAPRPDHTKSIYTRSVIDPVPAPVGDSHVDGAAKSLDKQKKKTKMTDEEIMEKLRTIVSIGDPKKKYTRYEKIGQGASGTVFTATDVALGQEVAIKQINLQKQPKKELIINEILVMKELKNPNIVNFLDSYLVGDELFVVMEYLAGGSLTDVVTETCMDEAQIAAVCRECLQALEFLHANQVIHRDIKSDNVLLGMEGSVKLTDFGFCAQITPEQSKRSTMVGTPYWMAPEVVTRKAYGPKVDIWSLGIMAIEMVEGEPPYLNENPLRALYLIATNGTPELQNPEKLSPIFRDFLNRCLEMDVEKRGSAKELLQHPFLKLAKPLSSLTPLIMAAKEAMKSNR
T3 sequence (P35590 839-1118 limits assumed, change not shown): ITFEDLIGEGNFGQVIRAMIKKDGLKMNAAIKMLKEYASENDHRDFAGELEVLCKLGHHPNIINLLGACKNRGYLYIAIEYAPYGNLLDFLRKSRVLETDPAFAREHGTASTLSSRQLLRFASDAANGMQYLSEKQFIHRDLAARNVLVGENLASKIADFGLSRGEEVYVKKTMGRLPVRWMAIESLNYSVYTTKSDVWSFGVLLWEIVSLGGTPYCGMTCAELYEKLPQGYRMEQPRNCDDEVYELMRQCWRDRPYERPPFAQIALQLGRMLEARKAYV
Chain of PAK1 (Q13153 whole entry): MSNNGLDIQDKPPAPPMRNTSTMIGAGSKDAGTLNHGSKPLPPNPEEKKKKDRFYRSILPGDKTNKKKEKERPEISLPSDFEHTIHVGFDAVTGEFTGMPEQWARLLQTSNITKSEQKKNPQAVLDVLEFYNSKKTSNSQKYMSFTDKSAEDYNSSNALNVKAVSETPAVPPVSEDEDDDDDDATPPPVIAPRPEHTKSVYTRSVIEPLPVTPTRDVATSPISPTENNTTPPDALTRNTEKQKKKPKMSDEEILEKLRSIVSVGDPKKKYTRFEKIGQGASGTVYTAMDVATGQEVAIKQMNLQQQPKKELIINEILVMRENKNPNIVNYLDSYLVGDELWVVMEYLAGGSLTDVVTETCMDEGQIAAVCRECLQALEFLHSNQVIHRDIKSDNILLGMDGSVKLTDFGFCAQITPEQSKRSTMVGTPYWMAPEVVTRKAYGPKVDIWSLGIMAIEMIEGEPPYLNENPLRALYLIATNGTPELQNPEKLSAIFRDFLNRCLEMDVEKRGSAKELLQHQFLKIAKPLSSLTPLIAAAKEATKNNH
T6 sequence (P07948 247-501 limits assumed, change not shown): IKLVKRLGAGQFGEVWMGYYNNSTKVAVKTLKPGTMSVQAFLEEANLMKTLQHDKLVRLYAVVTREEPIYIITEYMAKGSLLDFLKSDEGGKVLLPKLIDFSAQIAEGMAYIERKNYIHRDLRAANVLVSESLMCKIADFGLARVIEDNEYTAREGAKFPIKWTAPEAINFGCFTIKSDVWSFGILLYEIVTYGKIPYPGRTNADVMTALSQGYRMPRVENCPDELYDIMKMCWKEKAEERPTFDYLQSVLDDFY
T1 sequence (P22607 472-761 limits assumed, change not shown): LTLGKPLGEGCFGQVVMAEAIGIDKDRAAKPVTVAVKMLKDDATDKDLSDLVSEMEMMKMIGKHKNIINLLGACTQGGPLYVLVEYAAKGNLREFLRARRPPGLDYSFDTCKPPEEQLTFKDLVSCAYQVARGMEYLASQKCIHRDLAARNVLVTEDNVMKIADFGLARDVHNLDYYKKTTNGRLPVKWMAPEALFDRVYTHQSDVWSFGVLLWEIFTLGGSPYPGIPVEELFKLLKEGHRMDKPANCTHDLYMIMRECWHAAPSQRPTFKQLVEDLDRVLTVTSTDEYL
Chain of Cdk7 cyclinH MAT1 (P50613 whole entry): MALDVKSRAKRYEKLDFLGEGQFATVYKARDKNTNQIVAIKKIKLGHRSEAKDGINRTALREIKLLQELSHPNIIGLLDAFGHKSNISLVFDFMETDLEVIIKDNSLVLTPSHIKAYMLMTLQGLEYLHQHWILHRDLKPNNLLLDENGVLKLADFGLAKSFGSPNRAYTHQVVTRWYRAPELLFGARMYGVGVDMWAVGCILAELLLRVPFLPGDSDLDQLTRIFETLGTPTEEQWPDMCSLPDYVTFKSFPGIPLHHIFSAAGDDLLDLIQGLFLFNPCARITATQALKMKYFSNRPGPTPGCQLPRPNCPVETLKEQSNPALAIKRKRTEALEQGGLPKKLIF
Chain of Cdk7 cyclinH MAT1 (P51946 whole entry partner): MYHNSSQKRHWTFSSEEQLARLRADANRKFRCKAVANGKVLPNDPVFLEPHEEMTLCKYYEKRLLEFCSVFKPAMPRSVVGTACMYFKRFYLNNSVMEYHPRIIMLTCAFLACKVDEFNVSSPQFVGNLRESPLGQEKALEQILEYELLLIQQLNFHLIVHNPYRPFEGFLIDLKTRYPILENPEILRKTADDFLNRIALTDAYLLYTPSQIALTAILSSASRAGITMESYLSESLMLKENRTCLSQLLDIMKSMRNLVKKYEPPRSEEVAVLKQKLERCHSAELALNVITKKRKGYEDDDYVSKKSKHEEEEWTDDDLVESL
Chain of Cdk7 cyclinH MAT1 (P51948 whole entry partner): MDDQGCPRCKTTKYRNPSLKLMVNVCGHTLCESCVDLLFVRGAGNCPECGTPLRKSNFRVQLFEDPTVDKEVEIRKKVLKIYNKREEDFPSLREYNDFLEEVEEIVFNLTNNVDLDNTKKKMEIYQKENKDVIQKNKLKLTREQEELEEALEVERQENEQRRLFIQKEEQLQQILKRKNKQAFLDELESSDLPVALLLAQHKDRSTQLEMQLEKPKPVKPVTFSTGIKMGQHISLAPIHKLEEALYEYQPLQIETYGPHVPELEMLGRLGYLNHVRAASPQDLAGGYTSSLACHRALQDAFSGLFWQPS
T5 sequence (P23458 875-1154 limits assumed, change not shown): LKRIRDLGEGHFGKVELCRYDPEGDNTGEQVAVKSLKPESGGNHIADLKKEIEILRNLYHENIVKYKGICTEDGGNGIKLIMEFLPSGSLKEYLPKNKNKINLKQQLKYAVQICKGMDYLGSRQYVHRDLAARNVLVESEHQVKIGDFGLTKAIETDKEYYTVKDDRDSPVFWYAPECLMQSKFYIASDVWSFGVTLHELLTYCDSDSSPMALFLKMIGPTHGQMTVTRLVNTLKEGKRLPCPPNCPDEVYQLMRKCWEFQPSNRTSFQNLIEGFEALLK
T2 sequence (O60674 849-1132 limits assumed, change not shown): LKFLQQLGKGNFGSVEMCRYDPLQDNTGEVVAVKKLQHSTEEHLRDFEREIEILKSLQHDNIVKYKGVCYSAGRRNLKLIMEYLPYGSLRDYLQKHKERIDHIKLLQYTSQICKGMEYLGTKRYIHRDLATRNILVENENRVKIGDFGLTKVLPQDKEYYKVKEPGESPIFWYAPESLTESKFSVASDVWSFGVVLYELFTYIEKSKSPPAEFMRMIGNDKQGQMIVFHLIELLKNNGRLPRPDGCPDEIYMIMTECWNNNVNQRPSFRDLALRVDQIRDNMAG
Chain of FGFR1 (P11362 22-822, species assumed): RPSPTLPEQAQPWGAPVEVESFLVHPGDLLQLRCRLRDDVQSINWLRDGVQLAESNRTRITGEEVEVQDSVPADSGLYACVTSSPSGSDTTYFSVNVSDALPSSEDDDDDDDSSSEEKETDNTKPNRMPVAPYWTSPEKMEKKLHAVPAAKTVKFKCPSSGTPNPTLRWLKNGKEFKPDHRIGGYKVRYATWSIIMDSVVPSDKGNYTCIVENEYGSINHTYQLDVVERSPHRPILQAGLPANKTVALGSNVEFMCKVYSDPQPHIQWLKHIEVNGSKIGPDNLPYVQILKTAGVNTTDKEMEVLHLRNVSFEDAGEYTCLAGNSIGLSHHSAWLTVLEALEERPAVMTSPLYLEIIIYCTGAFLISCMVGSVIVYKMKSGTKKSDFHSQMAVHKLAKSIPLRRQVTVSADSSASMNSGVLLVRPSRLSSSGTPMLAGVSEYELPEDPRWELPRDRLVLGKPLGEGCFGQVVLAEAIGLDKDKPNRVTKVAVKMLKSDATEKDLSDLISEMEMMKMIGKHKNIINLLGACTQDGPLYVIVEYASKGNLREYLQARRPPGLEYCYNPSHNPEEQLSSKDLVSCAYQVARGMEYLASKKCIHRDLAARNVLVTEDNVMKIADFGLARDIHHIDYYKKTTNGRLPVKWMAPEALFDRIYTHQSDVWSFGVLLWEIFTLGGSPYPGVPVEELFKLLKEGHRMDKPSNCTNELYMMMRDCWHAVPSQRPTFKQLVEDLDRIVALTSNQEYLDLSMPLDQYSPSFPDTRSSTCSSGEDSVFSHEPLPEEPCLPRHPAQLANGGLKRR
Chain of BaF-PTC3-RET (P07949 713-1063 limits assumed, change not shown): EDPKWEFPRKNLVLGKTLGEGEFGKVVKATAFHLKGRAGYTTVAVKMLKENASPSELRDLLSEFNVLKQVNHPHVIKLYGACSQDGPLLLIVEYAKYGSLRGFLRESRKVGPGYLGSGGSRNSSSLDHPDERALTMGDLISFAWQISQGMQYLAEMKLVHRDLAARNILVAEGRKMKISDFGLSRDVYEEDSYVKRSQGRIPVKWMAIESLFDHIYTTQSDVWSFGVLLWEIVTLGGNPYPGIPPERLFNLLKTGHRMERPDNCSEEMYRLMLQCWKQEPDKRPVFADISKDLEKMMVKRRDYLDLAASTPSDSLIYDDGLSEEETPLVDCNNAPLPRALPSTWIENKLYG

As for `CNC(=O)c1cc(Oc2ccc3nc(NC4CCCCC4O)sc3c2)ccn1` (centres unmarked) [Compound (I)], the IC50 against Cdk7 cyclinH MAT1 was more than 10 µM; on Dyrk3, more than 10 µM; against FGFR1, more than 25 µM; at Nek2 it was more than 10 µM; at PAK1, more than 25 µM; against PAK2, more than 25 µM. Moreover, the IC50 was more than 25 µM at PIK3Calpha, more than 25 µM against Pim1 and more than 10 µM at TRKB. Further, the EC50 on BaF-Tel-FGFR3, on BaF-PTC3-RET, at BaF3-Tel-JAK2; clone1, at BAF/Tel-Tie1-Q2/sACP, at BAF/Tel-InsR-Q.4/sACP and at BAF/Tel-JAK1-S1.2/sACP was more than 10 µM throughout. Moreover, the EC50 at BAF/Tel-Lyn-1.2/sACP is more than 10 µM. For the same compound, the pEC50 in experiment [1] is less than 5.00.

Broadly, the IC50 is the midpoint of a concentration-inhibition curve. Lower therefore signals greater potency in that assay. Broadly, the EC50 is the concentration giving half of the maximal effect. The term pEC50 denotes the negative decadic logarithm of the EC50, by convention in mol/L.

These data come from US10537563B2, “Methods for treating ocular disease using inhibitors of CSF-1R” (NOVARTIS AG, priority 2016, dated 2020).
